Several values for one entry are separate records, joined by “and”; a condition that tells them apart may be missing. Equal entries are not always repeated. Activity calls are given as the source filed them.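 How the source made its calls: active means compounds giving half or more protection of infected cells from virus-caused growth loss, again on retest; inactive means the rest.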
Tested on: CEM cells HIV-1 protection, formazan growth assay
Assay: NCI AIDS Antiviral Assay
Settings: for IC50: measured here: growth of uninfected CEM cells
In short: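 Category rules: moderately active means at least 50% protection on retest, and confirmed active means 100% protection reproducibly. The underlying data came from a formazan growth assay in HIV-1-infected CEM cells.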

Row | Structure (SMILES) | EC50 [µM] | IC50 | outcome
1 | Cc1cccc(C)c1NC(=O)CCc1nnc2s/c(=C\c3ccc(N(C)C)cc3)c(=O)n12 | > 1.7 | > 1.7 µM | –
2 | O=S(=O)(c1ccccn1)c1nc2ccccc2s1 | – | – | inactive
3 | COc1ccc(NC2Oc3cc4c(cc3C(c3cccc(OC)c3OC)C2C)OCO4)cc1 (stereo not given) | > 200 | 1.95 µM | –
4 | COc1ccc(C2C3=CONC3CC3CCCCC32)cc1 (stereo not given) | > 200 | 77.6 µM | –
5 | O=c1oc2ccccc2c(O)c1C(c1ccc2ccccc2c1)c1c(O)c2ccccc2oc1=O | > 200 | 38.9 µM | –
6 | CCOC(=O)C(=CNC(=S)Nc1c(CC)cccc1CC)C(=O)OCC | > 200 | > 200 µM | –
7 | CC1=CC(=O)C(=CN2C(=O)/C(=C\c3cccnc3)NC2=S)C(=O)O1 | > 200 | > 200 µM | –
8 | CC(=O)Oc1ccc([As](=O)(O)O)cc1N | > 200 | > 200 µM | –
9 | S=C(N/N=C/c1ccccn1)N1CCCCCC1 | > 0.2 | 0.0105 µM | –
10 | CC1=NN(C(=O)CC(=O)N(C(=O)c2ccccc2Cl)c2ccc(C)cc2)C(=O)C1N=Nc1ccc([N+](=O)[O-])cc1 (stereo not given) | > 12.9 | > 12.9 µM | –
11 | NC(=O)c1oc([N+](=O)[O-])c(-c2ccccc2)c1-c1ccccc1 | > 200 | 15.1 µM | –
12 | CCCCCCCCCCCCCCCCOCC(CN(C)CCN(C)C)OCCCCCCCCCCCCCCCC (stereo not given) | – | – | inactive
13 | CCOC(=O)C(NC(=O)OC(C)(C)C)C(=O)OCC | > 200 | > 200 µM | –
14 | CCSc1ccc(N=[N+]([O-])c2ccc(SCC)c(Cl)c2)cc1Cl | > 50.1 | > 50.1 µM | –
15 | CN(C)C(=O)NCCN1CCCCCc2ccccc21 | > 200 | 49 µM | –
16 | CCOC(=O)C(O)(NC(=O)NC(O)(C(=O)OCC)C(F)(F)F)C(F)(F)F (stereo not given) | > 200 | > 200 µM | –
17 | Cc1nc(C(N)=S)sc1/C(CC(=O)C(=O)Nc1cccc2ccc(O)cc12)=N\NC(=O)c1ccncc1 | > 35.5 | > 35.5 µM | –
18 | COCC#C[C@@]1(O)CCCCC1CC(OC)OC (stereo not given in full) | > 200 | 112 µM | –
19 | CCOC(=O)c1nc2ccccc2nc1Oc1ccc(F)cc1 | > 200 | > 200 µM | –
20 | C=CCC1(c2ccccc2)Oc2ccccc2-n2cccc2C1=O (stereo not given) | 7.08 | 10.5 µM | –

Row | Structure (SMILES) | EC50 [µM] | IC50 | outcome
21 | CC(=O)c1cccc(NC(=O)C(=O)C(C2OC(=O)c3ccccc32)[N+](=O)[O-])c1 (stereo not given) | > 468 | > 468 µM | –
22 | CCC1([N+](=O)[O-])COP(N)(=O)OC1 (stereo not given) | > 427 | 31.6 µM | –
23 | CCC12C=CCN3CCC4(c5cc(C(c6ccccn6)c6cc7ccccc7n6C)c(OC)cc5N(C)C4C(O)(C(=O)OC)C1OC(C)=O)C32 (stereo not given) | > 10.7 | > 10.7 µM | –
24 | CCO[C@H]1CC(C)C2[C@H](CC3(C)C4CC(OC(C)=O)C5C(C)(C)[C@@H](OC6OCC(O)C(O)C6O)CC[C@@]56C[C@@]46CC[C@]23C)O1 (stereo not given in full) | > 41.7 | > 41.7 µM | –
25 | N#Cc1cccc(N2C(=O)C3C4C=CC(C3C2=O)C2C(=O)N(c3cccc(C#N)c3)C(=O)C42)c1 (stereo not given) | – | – | inactive
26 | CN(C)c1cccc2c1C(=O)C=CC21c2ccc(N(C)C)c3c(N(C)C)ccc(c23)C(c2ccccc2)C1c1ccccc1 (stereo not given) | > 100 | 7.08 µM | –
27 | COC1(C)C(=O)N2C1N(C(=O)OC(C)(C)C)CC2(C)C (stereo not given) | > 380 | > 380 µM | –
28 | O=c1cc(O)nc2nc(-c3ccccc3)c(-c3ccccc3)nn12 | > 81.3 | > 81.3 µM | –
29 | O=C(/C=C/c1ccc(O)c(O)c1)OCCCc1ccccc1 | > 200 | 5.01 µM | –
30 | CSc1nc(SC)c2[nH]cnc2n1 | > 200 | 145 µM | –
31 | COP(=O)(OC)/C(=C/c1cn(C(C)=O)c2ccccc12)NC(C)=O | > 200 | 17.4 µM | –
32 | COc1cc2cccc(NC(=O)c3cc(OC)c(OC)c(OC)c3Br)c2cc1OC | – | – | inactive
33 | CN(CC#N)[C@H]1CCC[C@]1(O)C#C[Si](C)(C)c1ccccc1 | > 16.6 | > 16.6 µM | –
34 | CCCCCCCCCCCCCCCCCCNC(=S)/N=C\C1=C(O)c2ccccc2C1=O | > 200 | 36.3 µM | –
35 | N#CC(C(=O)C(=O)Nc1ccc(Cl)c(Cl)c1)c1ccc(Cl)cc1 (stereo not given) | > 135 | 107 µM | –
36 | C/C(CCn1[nH]c(=O)ccc1=O)=N\NC(=O)C(N)=O | > 676 | > 676 µM | –
37 | CC1=C(C(=O)CC(=O)C(=O)Nc2ccccc2C(F)(F)F)Sc2ccccc2N1 | – | – | inactive
38 | Nc1ccc2ncc(Nc3ccc(Cl)c(Cl)c3)nc2c1 | > 8.91 | > 8.91 µM | –
39 | COc1ccc(/C(CCl)=C(\Nc2ccccc2)c2ccc(OC)c(OC)c2)cc1OC | > 200 | > 200 µM | –
40 | O=C(O)CSc1n[nH]c(/C=C/c2ccccc2)n1 | > 955 | > 955 µM | –

Row | Structure (SMILES) | EC50 [µM] | IC50 | outcome
41 | CC(=O)N1C/C(=C\c2ccccc2)C(=O)/C(=C/c2ccccc2)C1 | – | – | inactive
42 | COc1cc(C2c3cc4c(cc3OC(NNC(N)=O)C2C)OCO4)cc(OC)c1OC (stereo not given) | > 200 | 0.331 µM | –
43 | COC(=O)CC1COC(C)(C)O1 (stereo not given) | – | – | inactive
44 | [Cu+2].[Cu+2].[Cu+2].[Cu+2].[O-]CCN(CC[OH2+])CC[OH2+].[O-]CCN(CC[OH2+])CC[OH2+].[O-]CCN(CC[OH2+])CC[OH2+].[O-]CCN(CC[OH2+])CC[OH2+] | > 200 | 4.79 µM | –
45 | C(=C1\CCC/C(=C/c2ccccc2)C1=NNc1ccccc1)/c1ccccc1 | > 14.5 | > 14.5 µM | –
46 | COC1/C=C/OC2(C)Oc3c(C)c(O)c4c(O)c(c(/C=N/N5C(C)CN(Cc6ccc(O)cc6)CC5C)c(O)c4c3C2=O)NC(=O)C(C)=C/C=C/C(C)C(O)C(C)C(O)C(C)C(OC(C)=O)C1C (stereo not given) | > 200 | 7.94 µM | –
47 | COc1ccc2c(c1)OC[C@@H]1c3cc(O)c4c(OC)cccc4c3O[C@H]21 | > 100 | 44.7 µM | –
48 | Cc1n[nH]c(C)c1N=O | > 200 | 4.27 µM | –
49 | CCOC(=O)Nc1cc(NC(C)/C(=N/O)c2ccccc2)c([N+](=O)[O-])c(N)n1 (stereo not given) | – | – | inactive
50 | CN(C)CCCCN1CCc2c(n(C)c3ccccc23)C1=O | > 603 | 43.7 µM and 72.4 µM | –
51 | Brc1ccc(-c2ccc3nnnn3n2)s1 | > 200 | > 200 µM | –
52 | COC(=O)c1cc(C(=CCC(=O)N[C@@H]2CC[C@@]3(C)[C@@H](CC[C@@H]4[C@@H]3CC[C@]3(C)[C@@H]([C@H](C)CCCC(C)C)CC[C@@H]43)C2)c2cc(Cl)c(OC)c(C(=O)OC)c2)cc(Cl)c1OC | > 200 | > 200 µM | –
53 | CC1=C(C)C(=O)c2c(cc3ccc4ccccc4n23)C1=O | – | – | inactive
54 | N#CC(C(=O)CCCC(=O)Nc1ccccc1[N+](=O)[O-])c1c(Cl)cccc1Cl (stereo not given) | > 309 | > 309 µM | –
55 | O=C1CN(c2cccc(C(F)(F)F)c2)C(=O)CN1NCNN1CC(=O)N(c2cccc(C(F)(F)F)c2)CC1=O | > 200 | > 200 µM | –
56 | Cc1nc2c(=O)n(C)c(=O)nc-2n(CCO)c1C | > 100 | 83.2 µM | –
57 | Brc1ccc(-c2nc(-c3ccc(Br)cc3)n(-c3ccccc3)n2)cc1 | > 200 | 93.3 µM | –
58 | C[N+](C)(C)CC(=O)N/N=C(/CC1OC(=O)c2ccccc21)c1ccccc1O (stereo not given) | > 120 | 77.6 µM | –
59 | C[N+](C)=c1nc(N2CCOCC2)ss1 | – | – | inactive
60 | Cc1ccc(NC(=S)N/C=C(\c2ccccc2)S(=O)Cc2ccccc2)c(C)c1 (stereo not given) | > 200 | 93.3 µM | –

From PubChem BioAssay AID179 (DTP/NCI, 2004)
